Where two headings read alike, the source gives them in different places.
Target: T1, LRRK2 (endogenous, HiBit tagged) (Homo sapiens, UniProt Q5S007)
T1 construct: endogenous in cells; host or cells: HEK293 cells with HiBit knock-in at the endogenous LRRK2 locus, stably expressing firefly luciferase
Experiment: Endogenous LRRK2 degradation assay, endogenous gene C-terminally HiBit-tagged in HEK293 cells (Nano-Glo Dual Luciferase)
Type: cell-based
Settings: endogenous HiBit-tagged LRRK2 in HEK293 cells, 24 hours treatment
Method in brief: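 LRRK2-HiBit quantified via Nano-Glo Dual Luciferase in HEK293 knock-in cells co-expressing firefly luciferase, after 24 h exposure to compound (1 μM final top, 1:3, 11 points). Values normalised to DMSO median per plate and curve-fitted; Alamar Blue viability run alongside.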

[1] = read-out: **Endogenous WT Dmax (%)

T1 sequence (Q5S007 whole entry): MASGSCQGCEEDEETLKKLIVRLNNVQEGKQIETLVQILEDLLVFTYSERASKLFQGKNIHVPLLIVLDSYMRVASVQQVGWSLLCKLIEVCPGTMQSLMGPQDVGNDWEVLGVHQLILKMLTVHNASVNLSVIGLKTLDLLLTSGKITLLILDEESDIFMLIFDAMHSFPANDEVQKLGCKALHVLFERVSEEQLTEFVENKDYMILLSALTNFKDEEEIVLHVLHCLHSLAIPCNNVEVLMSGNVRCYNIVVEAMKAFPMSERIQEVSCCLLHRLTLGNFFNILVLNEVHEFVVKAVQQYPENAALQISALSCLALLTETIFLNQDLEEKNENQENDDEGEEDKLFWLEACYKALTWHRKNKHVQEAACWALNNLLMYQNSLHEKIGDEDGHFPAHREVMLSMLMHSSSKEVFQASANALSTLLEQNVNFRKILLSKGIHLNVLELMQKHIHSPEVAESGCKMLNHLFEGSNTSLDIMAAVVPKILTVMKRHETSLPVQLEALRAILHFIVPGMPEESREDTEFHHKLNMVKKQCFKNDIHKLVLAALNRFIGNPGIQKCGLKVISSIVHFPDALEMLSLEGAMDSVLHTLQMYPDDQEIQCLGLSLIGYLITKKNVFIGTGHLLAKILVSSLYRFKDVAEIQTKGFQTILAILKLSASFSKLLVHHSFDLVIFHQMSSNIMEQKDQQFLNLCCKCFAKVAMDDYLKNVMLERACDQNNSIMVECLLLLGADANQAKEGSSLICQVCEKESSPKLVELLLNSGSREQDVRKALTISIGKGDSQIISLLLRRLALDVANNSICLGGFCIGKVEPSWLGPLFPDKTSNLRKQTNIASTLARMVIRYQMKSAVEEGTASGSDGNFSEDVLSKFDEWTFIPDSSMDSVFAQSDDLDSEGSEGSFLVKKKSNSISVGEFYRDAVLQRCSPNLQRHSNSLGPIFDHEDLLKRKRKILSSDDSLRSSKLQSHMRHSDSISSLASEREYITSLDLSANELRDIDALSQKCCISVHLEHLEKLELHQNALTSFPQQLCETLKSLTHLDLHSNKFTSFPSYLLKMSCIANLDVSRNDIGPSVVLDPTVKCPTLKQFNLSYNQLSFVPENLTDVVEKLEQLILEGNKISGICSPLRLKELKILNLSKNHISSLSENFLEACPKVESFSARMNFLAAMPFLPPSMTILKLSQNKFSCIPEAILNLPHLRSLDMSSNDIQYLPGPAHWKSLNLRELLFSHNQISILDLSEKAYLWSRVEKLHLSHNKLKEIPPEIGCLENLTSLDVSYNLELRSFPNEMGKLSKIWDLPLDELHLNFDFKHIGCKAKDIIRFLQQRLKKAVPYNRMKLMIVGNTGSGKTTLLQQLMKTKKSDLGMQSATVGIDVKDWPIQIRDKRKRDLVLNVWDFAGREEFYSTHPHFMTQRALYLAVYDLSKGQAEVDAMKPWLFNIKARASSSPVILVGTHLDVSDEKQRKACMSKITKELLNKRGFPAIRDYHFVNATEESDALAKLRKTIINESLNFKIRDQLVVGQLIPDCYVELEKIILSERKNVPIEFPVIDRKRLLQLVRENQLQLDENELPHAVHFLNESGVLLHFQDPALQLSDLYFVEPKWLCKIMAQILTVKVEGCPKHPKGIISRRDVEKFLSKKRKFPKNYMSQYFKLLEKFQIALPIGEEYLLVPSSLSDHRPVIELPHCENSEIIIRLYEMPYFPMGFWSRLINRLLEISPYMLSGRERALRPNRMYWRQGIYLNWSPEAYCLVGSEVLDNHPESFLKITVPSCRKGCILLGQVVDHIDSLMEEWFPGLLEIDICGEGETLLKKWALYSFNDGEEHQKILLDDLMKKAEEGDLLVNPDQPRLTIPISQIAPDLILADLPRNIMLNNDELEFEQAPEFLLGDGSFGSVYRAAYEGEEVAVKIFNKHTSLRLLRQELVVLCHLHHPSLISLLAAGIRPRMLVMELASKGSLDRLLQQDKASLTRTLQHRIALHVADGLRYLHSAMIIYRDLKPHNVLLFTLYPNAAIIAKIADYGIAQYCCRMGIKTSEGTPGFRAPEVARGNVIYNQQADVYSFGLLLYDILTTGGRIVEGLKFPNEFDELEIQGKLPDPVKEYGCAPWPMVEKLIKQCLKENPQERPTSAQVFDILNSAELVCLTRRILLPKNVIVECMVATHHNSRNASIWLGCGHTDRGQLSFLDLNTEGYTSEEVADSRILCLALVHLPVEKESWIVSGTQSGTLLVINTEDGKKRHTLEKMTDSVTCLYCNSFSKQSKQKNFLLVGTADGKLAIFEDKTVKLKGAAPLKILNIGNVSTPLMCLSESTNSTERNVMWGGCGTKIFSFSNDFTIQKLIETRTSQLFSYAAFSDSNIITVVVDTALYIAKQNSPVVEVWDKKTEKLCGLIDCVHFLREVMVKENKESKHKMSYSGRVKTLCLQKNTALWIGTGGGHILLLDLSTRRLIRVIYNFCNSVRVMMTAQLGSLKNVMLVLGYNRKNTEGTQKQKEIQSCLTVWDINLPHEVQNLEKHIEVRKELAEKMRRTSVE

| SMILES | DC50 (read-out: Endogenous WT DC50) | Dmax (read-out: Endogenous WT Dmax) | Dmax [1] | DC50 (read-out: *Endogenous WT DC50) |
| --- | --- | --- | --- | --- |
| CC1(Oc2ccc3[nH]nc(-c4cc(N5CCC(CN6C7CC6CN(CC6CCN(c8ccc9c(c8F)CN(C8CCC(=O)NC8=O)C9=O)CC6)C7)CC5)ncn4)c3c2)CC1 (centres unmarked) [Compound 237, 3-{4-fluoro-5-[4-({6-[(1-{6-[5-(1-methylcyclopropoxy)-1H-indazol-3-yl]pyrimidin-4-yl}piperidin-4-yl)methyl]-3,6-diazabicyclo[3.1.1]heptan-3-yl}methyl)piperidin-1-yl]-1-oxo-2,3-dihydro-1H-isoindol-2-yl}piperidine-2,6-dione] | < 10 nM | ≥ 70% | – | – |
| CC1(Oc2ccc3n[nH]c(-c4cc(N5CCC(CN6CCN(CC7(F)CCN(c8ccc9c(c8F)CN(C8CCC(=O)NC8=O)C9=O)CC7)CC6)CC5)ncn4)c3c2)CC1 (centres unmarked) [Compound 209, 3-[4-fluoro-5-[4-fluoro-4-[[4-[[1-[6-[5-(1-methylcyclopropoxy)-2H-indazol-3-yl]pyrimidin-4-yl]-4-piperidyl]methyl]piperazin-1-yl]methyl]-1-piperidyl]-1-oxo-isoindolin-2-yl]piperidine-2,6-dione] | < 10 nM | ≥ 70% | – | – |
| COc1c(N2CC3(CCN([C@H]4C[C@H](OC5CCN(c6cc(-c7[nH]nc8ccc(OC9(C)CC9)cc78)ncn6)CC5)C4)CC3)C2)ccc2c1CN(C1CCC(=O)NC1=O)C2=O (some centres unmarked) [Compound 344, 3-(4-methoxy-1-oxo-5-{7-[(1r,3r)-3-[(1-{6-[5-(1-methylcyclopropoxy)-2H-indazol-3-yl]pyrimidin-4-yl}piperidin-4-yl)oxy]cyclobutyl]-2,7-diazaspiro[3.5]nonan-2-yl}-2,3-dihydro-1H-isoindol-2-yl)piperidine-2,6-dione] | – | – | 50 to 70% | < 10 nM |
| COc1c(C2CCN([C@H]3C[C@H](OC4CCN(c5cc(-c6[nH]nc7ccc(OC8(C)CC8)cc67)ncn5)CC4)C3)CC2)ccc2c1CN(C1CCC(=O)NC1=O)C2=O (some centres unmarked) [Compound 329, 3-(4-methoxy-1-oxo-5-{1-[(1r,3r)-3-[(1-{6-[5-(1-methylcyclopropoxy)-2H-indazol-3-yl]pyrimidin-4-yl}piperidin-4-yl)oxy]cyclobutyl]piperidin-4-yl}-2,3-dihydro-1H-isoindol-2-yl)piperidine-2,6-dione] | – | – | 50 to 70% | < 10 nM |
| CC1(Oc2ccc3n[nH]c(-c4cc(N5CCN(C[C@H]6CC[C@H](OC7CCN(c8ccc9c(c8F)CN(C8CCC(=O)NC8=O)C9=O)CC7)CC6)CC5)ncn4)c3c2)CC1 (some centres unmarked) [Compound 234, 3-[4-fluoro-5-[4-[4-[[4-[6-[5-(1-methylcyclopropoxy)-2H-indazol-3-yl]pyrimidin-4-yl]piperazin-1-yl]methyl]cyclohexoxy]-1-piperidyl]-1-oxo-isoindolin-2-yl]piperidine-2,6-dione] | < 10 nM | 50 to 70% | – | – |

More lines, now with the values ahead:

| DC50 (read-out: Endogenous WT DC50) | Dmax (read-out: Endogenous WT Dmax) | Dmax [1] | DC50 (read-out: *Endogenous WT DC50) | SMILES |
| --- | --- | --- | --- | --- |
| – | – | 50 to 70% | < 10 nM | COc1c(N2CCC(CN3CCN(CC4CCN(c5cc(-c6n[nH]c7cnc(OC8(C)CC8)cc67)ncn5)CC4)C[C@@H]3C)CC2)ccc2c1CN(C1CCC(=O)NC1=O)C2=O (stereo partly drawn) [Compound 271, 3-[4-methoxy-5-(4-{[(2S)-2-methyl-4-[(1-{6-[5-(1-methylcyclopropoxy)-1H-pyrazolo[3,4-c]pyridin-3-yl]pyrimidin-4-yl}piperidin-4-yl)methyl]piperazin-1-yl]methyl}piperidin-1-yl)-1-oxo-2,3-dihydro-1H-isoindol-2-yl]piperidine-2,6-dione] |
| 10 to 50 nM | 50 to 70% | – | – | CC1(Oc2ccc3[nH]nc(-c4cc(N5CCC(CC6(F)CCN(CC7CCN(c8c(F)cc9c(c8F)CN(C8CCC(=O)NC8=O)C9=O)CC7)CC6)CC5)ncn4)c3c2)CC1 (centres unmarked) [Compound 223, 3-{4,6-difluoro-5-[4-({4-fluoro-4-[(1-{6-[5-(1-methylcyclopropoxy)-1H-indazol-3-yl]pyrimidin-4-yl}piperidin-4-yl)methyl]piperidin-1-yl}methyl)piperidin-1-yl]-1-oxo-2,3-dihydro-1H-isoindol-2-yl}piperidine-2,6-dione] |
